This is an account of results in patent publication US20190022092A1, “Therapeutic Combinations of a BTK Inhibitor and a GITR Binding Molecule, a 4-1BB Agonist, or an OX40 Agonist” (Acerta Pharma B.V., priority 2015, published 2019).

Series [1] has as its system GPVI platelet aggregation. The series can be described thus: GPVI (convulxin-induced) platelet aggregation. The settings on record: human platelets. The format is cell-based. The method, then:
In FIG. 67, the results of CVX-induced (250 ng/mL) human platelet aggregation results before and 15 minutes after administration of the BTK inhibitors to 6 healthy individuals are shown.

The subject of series [2] is GPVI platelet aggregation. Kind of series: GPVI platelet aggregation studies. The format is cell-based. The note with it: read-out: IC50, GPVI platelet aggregation.
For a further series, the system named is Raji cell line. The series can be described thus: Antibody-dependent NK cell-mediated cytotoxicity, chromium release, Raji cell line. Format: cell-based. The settings on record: 1 μM, 4 hours, variable rituximab, effector:target 25:1.
Series [3] concerns CD8+ T cell function (B lymphoblast targets). Kind of series: Cytotoxic T cell (CTL) assay. The format is cell-based. The settings on record: CTL generated 4 days with 500 nM inhibitor. How it is done: Without being bound by any theory, CD8^+ T cells have two primary effector functions: (1) produce large amounts of IFN-γ (which activates macrophages), and (2) cytolytic activity. […] The targets were B lymphoblasts from lipopolysaccharide (LPS) treated cultures. The assay was performed by incubating different ratios of effectors:targets for 4 hours.

The subject of series [4] is NK cell lysis of Raji cells. The series can be described thus: Rituximab ADCC 51Cr release assay, Raji targets. Format: cell-based, human. The source says:
Cell culture conditions were as follows. […] The HER18 cells were maintained in DEM supplemented with fetal bovine serum, penicillin-streptomycin and. Prior to assay, HER18 cells were harvested using trypsin-EDTA, washed with phosphate-buffered saline (PBS) containing 5% serum and viable cells were counted. For culture of primary target cells, peripheral blood from CLL patients was subject to density centrifugation to obtain peripheral blood mononuclear cells (PBMC). Cell preparations were washed and then subject to positive selection of CD5^+CD19^+ CLL cells using magnetic beads (MACS, Miltenyi Biotech). Cell preparations were used fresh after selection. NK cells from CLL patients and healthy volunteers were enriched from peripheral blood collected in sodium citrate anticoagulant tubes and then subject to density centrifugation. Removal of non NK cells was performed using negative selection by MACS separation. Freshly isolated NK cells were washed three times, enumerated, and then used immediately for ADCC assays.
ADCC assays were performed as follows. Briefly, target cells (Raji or primary CLL) were labeled by incubation at 37° C. with 100 μCi ^51Cr for 4 hours prior to co-culture with NK cells. Cells were washed, enumerated, and then added in triplicate to prepared 96-well plates containing treated NK cells at an effector:target (E:T) ratio of 25:1. […] Cultures were incubated at 37° C. for 4 hours, and then centrifuged. Supernatants were harvested and ^51Cr release was measured by liquid scintillation counting. All experiments were performed in triplicate.

In a further series the test system is hematologic malignancies. The settings on record: cited from earlier work.
The test system of series [5] is CD8+ T cell. The series can be described thus: Cytotoxicity assay for CD8+ T cell function. The format is cell-based. The settings on record: relative to vehicle. The source says:
FIG. 38 illustrates the results of the cytotoxicity assay for CD8^+ T cell function.

The next series deals with Th17 and Treg cells. Kind of series: Th17 and Treg development of CD4+ T cells under skewing cytokines. Format: cell-based. The method, then:
Enriched CD4^+ T cells are plated on 24-well culture dishes that have been precoated 2 hr with 250 μL anti-TCRβ (0.5 μg/mL) plus anti-CD28 (5 μg/mL) at 37° C. in PBS. The cells are then supplemented with media containing BTK inhibitors along with the skewing cytokines as indicated in the following. The Th17 and Treg cultures are grown for 4 days before analysis. The cells are maintained for an additional 3 days with skewing cytokines (Th17; 20 ng/mL IL-6, 0.5 ng/mL TGF-β, 5 μg/mL IL-4, 5 μg/mL IFN-γ and Treg; 0.5 ng/mL TGF-β, 5 μg/mL IL-4, 5 μg/mL IFN-γ) and are supplemented with IL2 as a growth factor.

Series [6] has as its system CD8+ T cell. The series can be described thus: IFN-γ level measurements for CD8+ T cell function. Format: cell-based. The settings on record: relative to vehicle. The source says:
FIG. 39 illustrates the results of IFN-γ level measurements for CD8^+ T cell function.

The subject of another series is CD8+ T cells. Kind of series: CD8+ T cell viability on anti-TCR/anti-CD28 coated wells. The note with it: 4 days, neutral culture conditions. Format: cell-based. How it is done:
Total T cells were plated on anti-TCR and anti-CD28 coated wells in the presence of both BTK inhibitors. Neutral culture conditions were used that will not polarize T cells to a helper lineage. […] Statistical significance was calculated using the Mann Whitney T-test.

The test system of series [7] is human platelet-mediated thrombosis. The note with it: VWF HA1, mouse (infused with human platelets), in vivo, 2 min. How it is done:
Injury to the vessel wall of arterioles ([…] diameter) was performed using a pulsed nitrogen dye laser (440 nm, Photonic Instruments) applied through a 20× water-immersion Olympus objective (LUMPlanF1, 0.5 numerical aperture (NA)) of a Zeiss Axiotech vario microscope. […] The extent of thrombus formation was assessed for 2 minutes after injury and the area (μm^2) of coverage determined (Image IQ, Andor Technology).
The BTK inhibitor-treated human platelets were fluorescently labeled and infused continuously through a catheter inserted into the femoral artery.

In the next series the test system is peripheral blood B cell. The note with it: doses from 0.001-100 mg/kg, two experiments; cited from earlier work.

For the molecule `C=CC(=O)N1CCC[C@@H](n2nc(-c3ccc(Oc4ccccc4)cc3)c3c(N)ncnc32)C1` [Formula (10), 1-[(3R)-3-[4-amino-3-(4-phenoxyphenyl)-1H-pyrazolo[3,4-d]pyrimidin-1-yl]piperidin-1-yl]prop-2-en-1-one, reference compound], in series [1], the GPVI platelet aggregation entry is recorded as “significantly inhibits”. For the same molecule, the IC50 (usually the midpoint of a concentration-inhibition curve) in series [2] turned out to be 130 nM. Moreover, the “antibody-dependent NK cell-mediated cytotoxicity (percent lysis)” value in the series on Raji cell line is recorded as “antagonizes antibody-dependent NK cell-mediated cytotoxicity”. In [3], the “CD8+ T cell function as % cytotoxicity” value is “affects CD8^+ T cell function” and the “CD8+ T cell function as IFN-γ levels” value is “significant loss of function”. Also, the “effect on rituximab-mediated ADCC, Raji cells” value in series [4] (1 μM, NK cells, E:T 25:1) is recorded as “strongly inhibited”. The antitumor activity entry in the series on hematologic malignancies (subjects with heavily pretreated non-Hodgkin lymphoma) is “substantial antitumor activity”. In addition, the “maximum tolerated dose (MTD)” value in the series on hematologic malignancies (within the tested dose range (through 840 mg)) is reported as “No maximum tolerated dose (MTD) was apparent”. Also, the “CD8+ T cell function as % cytotoxicity” value in the series on CD8+ T cell [5] is listed as “affects CD8^+ T cell function as measured by % cytotoxicity”. In the series on Th17 and Treg cells, the Th17 development entry was “profound inhibition” and the Treg development result is “increase”. The “CD8+ T cell function as IFN-γ level” value in the series with CD8+ T cell [6] is given as “affects CD8^+ T cell function as measured by IFN-γ level”. Also, in the series with CD8+ T cells, the “CD8+ T cell viability” value is “strong, negative effect”.

“rituximab: anti-CD20 antibody (Genentech)”: the “increase in cell lysis over natural cytotoxicity” value in series [4] (rituximab 0.1 and 1 μg/mL, healthy donor NK cells, Raji cells) is 5- to 8 fold.

In the case of `C=CC(=O)Nc1cccc(Nc2nc(Nc3ccc(OCCOC)cc3)ncc2F)c1` [Formula (17), N-(3-((5-fluoro-2-((4-(2-methoxyethoxy)phenyl)amino)pyrimidin-4-yl)amino)phenyl)acrylamide, reference compound], the “effect on human platelet-mediated thrombus formation” value in series [7] was “effect similar to Formula (10) (ibrutinib)”.

Consider “PF-05082566: 4-1BB agonist monoclonal antibody from Pfizer; heavy chain SEQ ID NO:435, light chain SEQ ID NO:436”, for which the “peripheral blood B cell numbers” value with peripheral blood B cell was “either unchanged or decreased”.
